Assay results: patent US8664257B2, “Oxygen-substituted 3-heteroaroylamino-propionic acid derivatives and their use as pharmaceuticals” (Sanofi, priority 2010, dated 2014)

molecular target: T1, Recombinant human cathepsin A (Homo sapiens, UniProt P10619); test: Cathepsin A inhibitory activity; assay type: biochemical; settings: read-out: Activity (2): Cathepsin A inhibitory activity, IC50 class
T1 construct: Recombinant human cathepsin A (residues 29-480, with a C-terminal 10-His tag); 10-His (C); purchased R&D Systems 1049-SE
T1 sequence (P10619 29-312 limits assumed): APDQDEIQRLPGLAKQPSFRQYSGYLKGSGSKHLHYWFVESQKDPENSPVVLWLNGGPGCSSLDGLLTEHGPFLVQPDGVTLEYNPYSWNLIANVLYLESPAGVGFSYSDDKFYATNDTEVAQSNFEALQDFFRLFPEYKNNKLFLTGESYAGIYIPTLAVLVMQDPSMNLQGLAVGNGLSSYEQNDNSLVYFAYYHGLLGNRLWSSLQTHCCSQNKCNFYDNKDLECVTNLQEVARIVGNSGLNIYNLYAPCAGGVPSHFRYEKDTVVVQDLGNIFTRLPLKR
T1 sequence (P10619 327-480 limits assumed): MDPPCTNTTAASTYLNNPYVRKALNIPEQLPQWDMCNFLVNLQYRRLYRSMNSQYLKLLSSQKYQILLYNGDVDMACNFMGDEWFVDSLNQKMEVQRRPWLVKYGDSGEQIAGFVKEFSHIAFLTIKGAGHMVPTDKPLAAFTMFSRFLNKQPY
Outline: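 Read-out was microfluidic separation of cleaved vs. uncleaved Bodipy FL-bradykinin (2 μM), giving turnover, % inhibition and IC50. Compound and 833 ng/ml enzyme met for 15 min RT in pH 5.5 MES/DTT before substrate (15 min RT). The 29-480 His-tagged human enzyme was first activated by cathepsin L, then E-64 (10 μM).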

Q: CC(C)[C@@](C)(O)COc1cc(C(=O)N[C@@H](CC(=O)O)c2ccccc2F)nn1-c1ccccc1F [Example 862, (S)-3-(2-Fluoro-phenyl)-3-{[1-(2-fluoro-phenyl)-5-((R)-2-hydroxy-2,3-dimethyl-butoxy)-1H-pyrazole-3-carbonyl]-amino}-propionic acid] was tested. Which IC50 did it give?
A: 100 to 1000 nM

Q: With Cc1ccccc1[C@H](CC(=O)O)NC(=O)c1cc(OC[C@@](C)(O)C(C)C)n(-c2ccccc2F)n1 [Example 870, (S)-3-{[1-(2-Fluoro-phenyl)-5-((S)-2-hydroxy-2,3-dimethyl-butoxy)-1H-pyrazole-3-carbonyl]-amino}-3-o-tolyl-propionic acid] as the compound, how does the IC50 read?
A: < 100 nM

Q: With CC(C)[C@](C)(O)COc1cc(C(=O)N[C@@H](CC(=O)O)c2ccc(F)cc2)nn1-c1ccccc1F [Example 872, (S)-3-(4-Fluoro-phenyl)-3-{[1-(2-fluoro-phenyl)-5-((S)-2-hydroxy-2,3-dimethyl-butoxy)-1H-pyrazole-3-carbonyl]-amino}-propionic acid] as the compound, how does the IC50 read?
A: 100 to 1000 nM

Q: How did the IC50 turn out when CC(C)[C@](C)(O)COc1cc(C(=O)N[C@@H](CC(=O)O)c2cccc(Cl)c2)nn1-c1ccccc1F [Example 877, (S)-3-(3-Chloro-phenyl)-3-{[1-(2-fluoro-phenyl)-5-((S)-2-hydroxy-2,3-dimethyl-butoxy)-1H-pyrazole-3-carbonyl]-amino}-propionic acid] was run?
A: 100 to 1000 nM

Q: For CC(C)(C)[C@](C)(O)COc1cc(C(=O)N[C@@H](CC(=O)O)c2ccc(F)cc2)nn1-c1ccccc1F [Example 880, (S)-3-(4-Fluoro-phenyl)-3-{[1-(2-fluoro-phenyl)-5-((S)-2-hydroxy-2,3,3-trimethyl-butoxy)-1H-pyrazole-3-carbonyl]-amino}-propionic acid], which IC50 is on record?
A: < 100 nM

Q: For CC(C)(C)[C@](C)(O)COc1cc(C(=O)N[C@@H](CC(=O)O)c2ccccc2F)nn1-c1ccccc1F [Example 883, (S)-3-(2-Fluoro-phenyl)-3-{[1-(2-fluoro-phenyl)-5-((S)-2-hydroxy-2,3,3-trimethyl-butoxy)-1H-pyrazole-3-carbonyl]-amino}-propionic acid], which IC50 is on record?
A: < 100 nM

Q: COc1cccc([C@H](CC(=O)O)NC(=O)c2cc(OC[C@@](C)(O)C(C)(C)C)n(-c3ccccc3F)n2)c1OC [Example 884, (S)-3-(2,3-Dimethoxy-phenyl)-3-{[1-(2-fluoro-phenyl)-5-((S)-2-hydroxy-2,3,3-trimethyl-butoxy)-1H-pyrazole-3-carbonyl]-amino}-propionic acid] was tested. Which IC50 did it give?
A: < 100 nM

Q: For Cc1ccccc1[C@H](CC(=O)O)NC(=O)c1cc(OCC(C)(O)c2ccccc2)n(-c2ccccc2F)n1 (stereo partly drawn) [Example 891, (S)-3-{[1-(2-Fluoro-phenyl)-5-(2-hydroxy-2-phenyl-propoxy)-1H-pyrazole-3-carbonyl]-amino}-3-o-tolyl-propionic acid], which IC50 is on record?
A: < 100 nM

same assay, conditions: recombinant human cathepsin A 833 ng/ml, Bodipy FL-labeled bradykinin 2 μM, pH 5.5; read-out: CATH-A IC50

Q: Cc1ccccc1[C@H](CC(=O)O)NC(=O)c1cc(OC[C@@](C)(O)C(C)C)n(-c2ccccc2F)n1 [Example 870, (S)-3-{[1-(2-Fluoro-phenyl)-5-((S)-2-hydroxy-2,3-dimethyl-butoxy)-1H-pyrazole-3-carbonyl]-amino}-3-o-tolyl-propionic acid] was tested. Which IC50 did it give?
A: 76 nM

same assay, conditions: recombinant human cathepsin A; read-out: Activity (2): Cathepsin A inhibitory activity, IC50 class

Q: With COc1cc(C(=O)N[C@@H](CC(=O)NCc2ccncc2)c2ccccc2C)nn1-c1ccccc1F [Example 916, 1-(2-Fluoro-phenyl)-5-methoxy-1H-pyrazole-3-carboxylic acid {(S)-2-[(pyridin-4-ylmethyl)-carbamoyl]-1-o-tolyl-ethyl}-amide] as the compound, how does the IC50 read?
A: 1000 to 30000 nM

Q: How did the IC50 turn out when CCC(C)(C)NC(=O)C[C@H](NC(=O)c1cc(OC)n(-c2ccccc2F)n1)c1ccccc1C [Example 917, 1-(2-Fluoro-phenyl)-5-methoxy-1H-pyrazole-3-carboxylic acid [(S)-2-(1,1-dimethyl-propylcarbamoyl)-1-o-tolyl-ethyl]-amide] was run?
A: 1000 to 30000 nM

Q: Which IC50 does the source give for CC[C@@H](C)NC(=O)C[C@H](NC(=O)c1cc(OC)n(-c2ccccc2F)n1)c1ccccc1C [Example 918, 1-(2-Fluoro-phenyl)-5-methoxy-1H-pyrazole-3-carboxylic acid [(S)-2-((R)-sec-butylcarbamoyl)-1-o-tolyl-ethyl]-amide] here?
A: 1000 to 30000 nM

Q: Which IC50 does the source give for COc1cc(C(=O)N[C@@H](CC(=O)NCC(C)C)c2ccccc2C)nn1-c1ccccc1F [Example 919, 1-(2-Fluoro-phenyl)-5-methoxy-1H-pyrazole-3-carboxylic acid ((S)-2-isobutylcarbamoyl-1-o-tolyl-ethyl)-amide] here?
A: 1000 to 30000 nM

Q: COc1cc(C(=O)N[C@@H](CC(=O)N[C@@H](C)C(C)(C)C)c2ccccc2C)nn1-c1ccccc1F [Example 920, 1-(2-Fluoro-phenyl)-5-methoxy-1H-pyrazole-3-carboxylic acid [(S)-1-o-tolyl-2-((S)-1,2,2-trimethyl-propylcarbamoyl)-ethyl]-amide] was tested. Which IC50 did it give?
A: 1000 to 30000 nM

Q: With CCC(COC)NC(=O)C[C@H](NC(=O)c1cc(OC)n(-c2ccccc2F)n1)c1ccccc1C (stereo partly drawn) [Example 921, 1-(2-Fluoro-phenyl)-5-methoxy-1H-pyrazole-3-carboxylic acid [(S)-2-(1-methoxymethyl-propylcarbamoyl)-1-o-tolyl-ethyl]-amide] as the compound, how does the IC50 read?
A: 1000 to 30000 nM

Q: With COc1cc(C(=O)N[C@@H](CC(=O)NC(C)(C)C)c2ccccc2C)nn1-c1ccccc1F [Example 922, 1-(2-Fluoro-phenyl)-5-methoxy-1H-pyrazole-3-carboxylic acid ((S)-2-tert-butylcarbamoyl-1-o-tolyl-ethyl)-amide] as the compound, how does the IC50 read?
A: 1000 to 30000 nM

Q: Which IC50 does the source give for COc1cc(C(=O)N[C@@H](CC(=O)Nc2cc(C)[nH]n2)c2ccccc2C)nn1-c1ccccc1F [Example 923, 1-(2-Fluoro-phenyl)-5-methoxy-1H-pyrazole-3-carboxylic acid [(S)-2-(5-methyl-1H-pyrazol-3-ylcarbamoyl)-1-o-tolyl-ethyl]-amide] here?
A: 1000 to 30000 nM

Q: For COc1cc(C(=O)N[C@@H](CC(=O)NCC(C)(C)C)c2ccccc2C)nn1-c1ccccc1F [Example 924, 1-(2-Fluoro-phenyl)-5-methoxy-1H-pyrazole-3-carboxylic acid [(S)-2-(2,2-dimethyl-propylcarbamoyl)-1-o-tolyl-ethyl]-amide], which IC50 is on record?
A: < 100 nM

Q: How did the IC50 turn out when COc1cc(C(=O)N[C@@H](CC(=O)NCC(C)(C)CO)c2ccccc2C)nn1-c1ccccc1F [Example 925, 1-(2-Fluoro-phenyl)-5-methoxy-1H-pyrazole-3-carboxylic acid [(S)-2-(3-hydroxy-2,2-dimethyl-propylcarbamoyl)-1-o-tolyl-ethyl]-amide] was run?
A: 1000 to 30000 nM

Q: Which IC50 does the source give for COc1cc(C(=O)N[C@@H](CC(=O)NCC#N)c2ccccc2C)nn1-c1ccccc1F [Example 926, 1-(2-Fluoro-phenyl)-5-methoxy-1H-pyrazole-3-carboxylic acid [(S)-2-(cyanomethyl-carbamoyl)-1-o-tolyl-ethyl]-amide] here?
A: 1000 to 30000 nM

Q: With COc1cc(C(=O)N[C@@H](CC(=O)N[C@@H](CO)C(C)C)c2ccccc2C)nn1-c1ccccc1F [Example 927, 1-(2-Fluoro-phenyl)-5-methoxy-1H-pyrazole-3-carboxylic acid [(S)-2-((R)-1-hydroxymethyl-2-methyl-propylcarbamoyl)-1-o-tolyl-ethyl]-amide] as the compound, how does the IC50 read?
A: 100 to 1000 nM

Q: How did the IC50 turn out when COc1cc(C(=O)N[C@@H](CC(=O)NCc2nnn[nH]2)c2ccccc2C)nn1-c1ccccc1F [Example 928] was run?
A: 100 to 1000 nM

Q: For COc1cc(C(=O)N[C@@H](CC(=O)NC(C)C)c2ccccc2C)nn1-c1ccccc1F [Example 929], which IC50 is on record?
A: 100 to 1000 nM

Q: COc1cc(C(=O)N[C@@H](CC(=O)Nc2ccn(C)n2)c2ccccc2C)nn1-c1ccccc1F [Example 930, 1-(2-Fluoro-phenyl)-5-methoxy-1H-pyrazole-3-carboxylic acid [(S)-2-(1-methyl-1H-pyrazol-3-ylcarbamoyl)-1-o-tolyl-ethyl]-amide] was tested. Which IC50 did it give?
A: 100 to 1000 nM

Q: For COc1cc(C(=O)N[C@@H](CC(=O)NC2CCNC2=O)c2ccccc2C)nn1-c1ccccc1F (stereo partly drawn) [Example 931, 1-(2-Fluoro-phenyl)-5-methoxy-1H-pyrazole-3-carboxylic acid [(S)-2-(2-oxo-pyrrolidin-3-ylcarbamoyl)-1-o-tolyl-ethyl]-amide], which IC50 is on record?
A: 1000 to 30000 nM

Q: Which IC50 does the source give for COc1cc(C(=O)N[C@@H](CC(=O)Nc2cc(C)on2)c2ccccc2C)nn1-c1ccccc1F [Example 932, 1-(2-Fluoro-phenyl)-5-methoxy-1H-pyrazole-3-carboxylic acid [(S)-2-(5-methyl-isoxazol-3-ylcarbamoyl)-1-o-tolyl-ethyl]-amide] here?
A: 100 to 1000 nM

Q: With COc1cc(C(=O)N[C@@H](CC(=O)NC2CC2)c2ccccc2C)nn1-c1ccccc1F [Example 933, 1-(2-Fluoro-phenyl)-5-methoxy-1H-pyrazole-3-carboxylic acid ((S)-2-cyclopropylcarbamoyl-1-o-tolyl-ethyl)-amide] as the compound, how does the IC50 read?
A: < 100 nM

Q: How did the IC50 turn out when COc1cc(C(=O)N[C@@H](CC(=O)NCc2ccno2)c2ccccc2C)nn1-c1ccccc1F [Example 934, 1-(2-Fluoro-phenyl)-5-methoxy-1H-pyrazole-3-carboxylic acid {(S)-2-[(isoxazol-5-ylmethyl)-carbamoyl]-1-o-tolyl-ethyl}-amide] was run?
A: < 100 nM

Q: How did the IC50 turn out when COCCNC(=O)C[C@H](NC(=O)c1cc(OC)n(-c2ccccc2F)n1)c1ccccc1C [Example 935, 1-(2-Fluoro-phenyl)-5-methoxy-1H-pyrazole-3-carboxylic acid [(S)-2-(2-methoxy-ethylcarbamoyl)-1-o-tolyl-ethyl]-amide] was run?
A: < 100 nM
